According to publication PMC9186373, “Design, synthesis, and biological evaluation of novel carbazole derivatives as potent DNMT1 inhibitors with reasonable PK properties” (Journal of Enzyme Inhibition and Medicinal Chemistry, 2022):

Columns and labels:
human DNMT1 = experiment: ELISA EpiQuik DNA methyltransferase (DNMT) activity/inhibitor assay; type: biochemical; details: for Inh% at 50 μM: 50 μM compound; for Inh% at 50 μM / Inh% at 100 μM: 200 nM purified DNMT1, EpiQuik kit; for Inh% at 100 μM: 100 μM compound; for DNMT1 inhibitory activity: SAR discussion of Table 1
Protocol: All the compounds were first screened using an ELISA EpiQuik DNA methyltransferase (DNMT) activity/inhibitor assay kit (Epigentek). To measure the effects of the compounds on human DNMT1 activity, 200 nM purified DNMT1 was incubated with 50 µM and 100 µM of the different compounds and S-adenosylmethionine in the DNMT assay buffer in the assay plate at 37 °C for 2 h[36]. Next, every sample was incubated with the capture and detection antibody, followed by incubation with developer solution for 10 min at room temperature. The absorbance was measured at 450 nm using a POLARstar Omega microplate reader (BMG). S-Adenosylhomocysteine (AdoHcy) was used as a positive control. Methylation inhibition assays for EZH2, LSD, and G9a were performed in modified Tris, pH 9.0, buffer using AlphaLisa technology. An amount of 10 µL of the reaction system contained a corresponding concentration of SAM (Sigma) (EZH2 50 µM, LSD 50 µM, and G9a 50 µM), which was the Km value in each enzymatic reaction, plus 100 nM biotinylated peptide H3 (1–21) (synthesis by GLChina) and the relevant enzyme concentration (0.03 nM EZH2, 0.03 nM LSD, and 0.03 nM G9a). The proteins were preincubated with various compound concentrations for 15 min at room temperature before the substrate and SAM were added. After 60 min of incubation at room temperature, acceptor and donor AlphaLisa beads were added according to the manufacturer’s recommendations. The signals were read in Alpha mode with an EnSpire multimode plate reader (PerkinElmer). IC50 values were derived by fitting the data for the inhibition percentage to a dose-response curve by non-linear regression in GraphPad Prism 5.0[20].
DNMT1 inhibition test was performed on 30 candidates to verify their biochemical activities. The EpiQuik DNA methyl-transferase (DNMT) activity/inhibitor assay kit (Epigentek) was used to identify the activity of synthetic compounds.

DNMT1 = DNMT1 (Homo sapiens, UniProt P26358); experiment: H3-labelled radioactive methylation assay; type: biochemical; details: H3-labeled radioactive methylation assay; 40 nM DNMT1
DNMT1, sequence (P26358 whole entry): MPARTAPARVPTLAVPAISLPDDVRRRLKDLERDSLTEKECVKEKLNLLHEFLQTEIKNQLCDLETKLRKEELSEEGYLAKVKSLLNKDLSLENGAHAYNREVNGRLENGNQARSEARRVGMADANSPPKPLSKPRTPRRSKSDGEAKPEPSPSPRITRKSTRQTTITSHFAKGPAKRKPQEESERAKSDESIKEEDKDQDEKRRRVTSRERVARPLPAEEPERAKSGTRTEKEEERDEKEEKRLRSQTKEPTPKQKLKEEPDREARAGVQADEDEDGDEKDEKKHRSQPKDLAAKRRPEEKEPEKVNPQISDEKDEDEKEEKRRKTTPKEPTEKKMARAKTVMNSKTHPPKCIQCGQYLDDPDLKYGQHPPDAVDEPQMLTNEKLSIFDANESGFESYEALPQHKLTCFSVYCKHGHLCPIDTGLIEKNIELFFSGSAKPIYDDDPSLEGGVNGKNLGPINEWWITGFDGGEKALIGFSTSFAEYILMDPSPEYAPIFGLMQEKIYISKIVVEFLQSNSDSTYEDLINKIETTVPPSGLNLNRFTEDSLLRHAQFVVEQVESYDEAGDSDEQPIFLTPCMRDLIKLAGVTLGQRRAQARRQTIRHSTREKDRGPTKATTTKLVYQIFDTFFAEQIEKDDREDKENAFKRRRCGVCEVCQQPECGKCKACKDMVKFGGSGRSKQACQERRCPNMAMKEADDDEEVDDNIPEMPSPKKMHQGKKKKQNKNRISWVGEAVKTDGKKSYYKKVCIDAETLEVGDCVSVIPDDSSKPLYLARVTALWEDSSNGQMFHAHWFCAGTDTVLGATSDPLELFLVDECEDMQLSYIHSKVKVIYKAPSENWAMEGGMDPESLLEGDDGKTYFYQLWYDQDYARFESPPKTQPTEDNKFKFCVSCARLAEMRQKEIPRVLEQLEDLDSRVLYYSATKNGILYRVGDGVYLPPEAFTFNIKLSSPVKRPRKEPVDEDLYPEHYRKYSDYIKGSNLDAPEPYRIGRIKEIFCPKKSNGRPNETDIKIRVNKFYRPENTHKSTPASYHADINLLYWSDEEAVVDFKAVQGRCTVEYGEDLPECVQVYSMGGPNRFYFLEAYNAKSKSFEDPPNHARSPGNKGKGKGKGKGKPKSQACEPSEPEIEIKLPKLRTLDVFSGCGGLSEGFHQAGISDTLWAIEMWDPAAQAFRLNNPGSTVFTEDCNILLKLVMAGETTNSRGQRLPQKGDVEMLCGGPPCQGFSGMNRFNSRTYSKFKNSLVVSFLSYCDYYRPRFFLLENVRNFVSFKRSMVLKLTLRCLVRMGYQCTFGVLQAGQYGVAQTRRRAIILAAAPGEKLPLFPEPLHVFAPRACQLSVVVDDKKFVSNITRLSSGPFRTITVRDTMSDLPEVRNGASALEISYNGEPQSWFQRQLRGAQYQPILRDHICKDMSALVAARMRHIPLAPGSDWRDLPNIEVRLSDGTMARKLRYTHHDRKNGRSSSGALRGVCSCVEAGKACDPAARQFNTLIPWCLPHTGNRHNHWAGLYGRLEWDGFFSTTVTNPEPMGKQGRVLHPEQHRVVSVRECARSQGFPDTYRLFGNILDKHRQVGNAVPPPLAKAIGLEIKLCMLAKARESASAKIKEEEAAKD
Protocol: The DNMT1 radioactive methylation inhibition assays were performed in 30 µL reactions containing 0.1 µM adenosyl-L-methionine S-[methyl-^3H] (^3H-SAM, ^15 Ci/mmol, PerkinElmer), 0.25 µg/mL poly (dI-dC)·poly (dI-dC) (Sigma), 40 nM DNMT1 in 50 mM Tris-HCl, pH 8.0, 1 mM DTT, 5% glycerol, and 100 µg/mL BSA. The proteins were preincubated with a range of compound concentrations for 15 min at room temperature before adding the substrate and [^3H] SAM. After 60 min of incubation at 37 °C, the reaction systems were transferred to a MultiScreen HTS filter plate (Millipore), and the plate was washed 3 times with doubly distilled H2O via a vacuum. The radioactivity was determined by liquid scintillation counting (MicroBeta, PerkinElmer). IC50 values were derived by fitting the data for the inhibition percentage to a dose-response curve by non-linear regression in GraphPad Prism 5.0.
To quantitatively analyse DNMT1 inhibitory effect, the H^3-labelled radioactive methylation assay was conducted to measure the methyltransferase activity of DNMT1 at a range of concentrations for these compounds.

| Compound | Inh% at 50 μM (human DNMT1) | Inh% at 100 μM (human DNMT1) | IC50 (DNMT1) | melting point | DNMT1 inhibitory activity (human DNMT1) |
| --- | --- | --- | --- | --- | --- |
| OC(CNCCc1c[nH]c2ccccc12)Cn1c2ccccc2c2ccccc21 (centres unmarked) [DC_05, reference compound] | 43% | 88% | 52 µM |  |  |
| OC(CNCCc1ccc(F)cc1)Cn1c2ccccc2c2cc(F)ccc21 (centres unmarked) [WK-2, 1-(3-Fluoro-9H-carbazol-9-yl)-3-((4-fluorophenethyl)amino)propan-2-ol] | 55% | 66% |  | 109 to 111 °C |  |
| COc1ccccc1OCCNCC(O)Cn1c2ccccc2c2cc(F)ccc21 (centres unmarked) [WK-4, 1-(3-fluoro-9H-carbazol-9-yl)-3-((2-(2-methoxyphenoxy)ethyl)amino) propan-2-ol] | 56% | 60% |  | 55 to 57 °C |  |
| CCCCOCCCNCC(O)Cn1c2ccccc2c2cc(F)ccc21 (centres unmarked) [WK-5, 1-((3-Butoxypropyl)amino)-3-(3-fluoro-9H-carbazol-9-yl)propan-2-ol] | 59% | 65% |  | 71 to 73 °C |  |
| CC(O)CNCC(O)Cn1c2ccccc2c2cc(F)ccc21 (centres unmarked) [WK-6, 1-(3-Fluoro-9H-carbazol-9-yl)-3-((2-hydroxypropyl)amino)propan-2-ol] | 68% | 79% |  | 118 to 120 °C |  |
| C[C@@H](CNCC(O)Cn1c2ccccc2c2cc(F)ccc21)c1ccccc1 (stereo partly drawn) [WK-8, 1-(3-Fluoro-9H-carbazol-9-yl)-3-(((R)-2-phenylpropyl)amino)propan-2-ol] | 16% | 58% |  | 100 to 102 °C |  |
| OC(CNCc1ccc(F)cc1)Cn1c2ccccc2c2cc(F)ccc21 (centres unmarked) [WK-9, 1-(3-Fluoro-9H-carbazol-9-yl)-3-((4-fluorobenzyl)amino)propan-2-ol] | 25% | 53% |  | 130 to 132 °C |  |
| CC(C)(C)OC(=O)N1CCN(CC(O)Cn2c3ccccc3c3cc(F)ccc32)C[C@H]1CO (stereo partly drawn) [WK-10, (2S)-tert-butyl 4-(3-(3-fluoro-9H-carbazol-9-yl)-2-hydroxypropyl)-2-(hydroxymethyl)piperazine-1-carboxylate] | 5.1% | −9.0% |  | 71 to 73 °C |  |
| OC[C@@H]1CN(CC(O)Cn2c3ccccc3c3cc(F)ccc32)CCN1 (stereo partly drawn) [WK-11, 1-(3-Fluoro-9H-carbazol-9-yl)-3-((S)-3-(hydroxymethyl)piperazin-1-yl)propan-2-ol] | 41% | 50% |  | 35 to 37 °C |  |
| COc1ccccc1OCCNCC(O)Cn1c2ccc(F)cc2c2cc(F)ccc21 (centres unmarked) [WK-16, 1-(3,6-Difluoro-9H-carbazol-9-yl)-3-((2-(2-methoxyphenoxy)ethyl)amino) propan-2-ol] | 27% | 46% |  | 93 to 95 °C |  |
| CCCCOCCCNCC(O)Cn1c2ccc(F)cc2c2cc(F)ccc21 (centres unmarked) [WK-17, 1-((3-butoxypropyl)amino)-3-(3,6-difluoro-9H-carbazol-9-yl)propan-2-ol] | 73% | 79% |  | 94 to 96 °C |  |
| OC(CNCCc1c[nH]c2ccccc12)Cn1c2ccccc2c2ccncc21 (centres unmarked) [WK-20, 1-((2-(1H-indol-3-yl)ethyl)amino)-3-(9H-pyrido[3,4-b]indol-9-yl)propan-2-ol] | 68% | 77% |  | 85 to 87 °C |  |
| OC(CNCCc1c[nH]c2ccccc12)Cn1c2ccccc2c2cccnc21 (centres unmarked) [WK-21, 1-((2-(1H-indol-3-yl)ethyl)amino)-3-(9H-pyrido[2,3-b]indol-9-yl)propan-2-ol] | 39% | 34% |  | 107 to 109 °C |  |
| OC(CNC1CC1)COC(Cn1c2ccccc2c2cc(F)ccc21)Cn1c2ccccc2c2cc(F)ccc21 (centres unmarked) [WK-24, 1-((1,3-Bis(3-fluoro-9H-carbazol-9-yl)propan-2-yl)oxy)-3-(cyclopropylamino)propan-2-ol] | 2.3% | 2.6% |  | 57 to 59 °C | inactive |
| CC(C)(C)OC(=O)N1CCN(CC(O)COC(Cn2c3ccccc3c3cc(F)ccc32)Cn2c3ccc(F)cc3c3cc(F)ccc32)C[C@@H]1CO (stereo partly drawn) [WK-26, (2R)-tert-butyl 4-(3-((1-(3,6-difluoro-9H-carbazol-9-yl)-3-(3-fluoro-9H-carbazol-9-yl)propan-2-yl)oxy)-2-hydroxypropyl)-2-(hydroxymethyl)piperazine-1-carboxylate] | 8.7% | −16% |  | 74 to 76 °C | lost its activity |
| OC(CNCCc1c[nH]c2ccccc12)COC(Cn1c2ccccc2c2cc(F)ccc21)Cn1c2ccc(F)cc2c2cc(F)ccc21 (centres unmarked) [WK-28, 1-((2-(1H-indol-3-yl)ethyl)amino)-3-((1-(3,6-difluoro-9H-carbazol-9-yl)-3-(3-fluoro-9H-carbazol-9-yl)propan-2-yl)oxy)propan-2-ol] | 91% | 91% |  | 113 to 115 °C |  |
| CCCCOCCCNCC(O)COC(Cn1c2ccccc2c2cc(F)ccc21)Cn1c2ccc(F)cc2c2cc(F)ccc21 (centres unmarked) [WK-29, 1-((3-Butoxypropyl)amino)-3-((1-(3,6-difluoro-9H-carbazol-9-yl)-3-(3-fluoro-9H-carbazol-9-yl)propan-2-yl)oxy)propan-2-ol] | 85% | 80% |  | 151 to 153 °C |  |
